Values after ≈ are worked out from the molar mass of the structure shown. Read-outs that look alike come from different tables or passages of the source. Where only a bound is given, the exact number is not on record here.

The test system of one assay is E. faecalis. Briefly: MIC, Gram-positive bacteria: E. faecalis. Format: cell-based. Particulars: Enterococcus faecalis, column 1, read-out: Minimal Inhibitory Concentration (MIC) E. faecalis.
The test system of a further assay is E. faecium ATCC 35667. Nature of the assay: MIC, Gram-positive bacteria: E. faecium ATCC 35667. It is filed as cell-based. Particulars: Enterococcus faecium, ATCC35667, column 2, read-out: Minimal Inhibitory Concentration (MIC) E. faecium ATCC 35667.
The next assay concerns E. faecium VRE; vanA. Briefly: MIC, Gram-positive bacteria: E. faecium VRE; vanA. Particulars: Enterococcus faecium, column 3, read-out: Minimal Inhibitory Concentration (MIC) E. faecium VRE. It is filed as cell-based.
The next assay deals with S. aureus. Nature of the assay: MIC, Gram-positive bacteria: S. aureus (strains not named). It is filed as cell-based. Particulars: Staphylococcus aureus, read-out: Minimal Inhibitory Concentration (MIC) S. aureus.
Assay [1] has as its system S. aureus Vat A streptogramin. Briefly: MIC, Gram-positive bacteria: S. aureus Vat A streptogramin. Particulars: Staphylococcus aureus; Gram-positive; column 5; read-out: Minimal Inhibitory Concentration (MIC) S. aureus Vat A streptogramin. It is filed as cell-based.
Assay [2] deals with S. aureus Linezolid-resistant; cfr. Briefly: MIC, Gram-positive bacteria: S. aureus Linezolid-resistant; cfr. It is filed as cell-based. Particulars: Staphylococcus aureus, column 9, read-out: Minimal Inhibitory Concentration (MIC) S. aureus Linezolid-resistant.
The next assay concerns S. pneumoniae. Briefly: MIC, Gram-positive bacteria: S. pneumoniae. It is filed as cell-based. Particulars: Streptococcus pneumoniae, column 10, read-out: Minimal Inhibitory Concentration (MIC) S. pneumoniae.
Assay [3] relates to K. pneumoniae multidrug-resistant. Nature of the assay: MIC, Gram-negative bacteria: K. pneumoniae multidrug-resistant. Format: cell-based. Particulars: Klebsiella pneumoniae, read-out: Minimal Inhibitory Concentration (MIC) K. pneumoniae multidrug-resistant.
A further assay deals with P. aeruginosa ATCC 27853. Nature of the assay: MIC, Gram-negative bacteria: P. aeruginosa ATCC 27853. Format: cell-based. Particulars: Pseudomonas aeruginosa, ATCC27853, read-out: Minimal Inhibitory Concentration (MIC) P. aeruginosa ATCC 27853.
Assay [4] has as its system P. aeruginosa MDR clinical isolate. Nature of the assay: MIC, Gram-negative bacteria: P. aeruginosa MDR clinical isolate. It is filed as cell-based. Particulars: Pseudomonas aeruginosa, read-out: Minimal Inhibitory Concentration (MIC) P. aeruginosa MDR clinical isolate.
In the next assay the test system is H. influenzae ATCC 49247. Briefly: MIC, Gram-negative bacteria: H. influenzae ATCC 49247. Format: cell-based. Particulars: Haemophilus influenzae, ATCC49247, read-out: Minimal Inhibitory Concentration (MIC) H. influenzae ATCC 49247.
The subject of another assay is Gram-Negative Organisms. Nature of the assay: microbe, parasite or virus in culture. It is filed as cell-based.
The test system of assay [5] is large subunit of the E. coli ribosome. Nature of the assay: cryo-EM structure bound to ribosome. Particulars: 2.8 Angstrom resolution cryo-EM; isoquinoline sidechain reaches into the P-site. It is filed as binding. The text has this: FIGS. 7A-7B. […] FIG. 7B depicts the structure of SAO110224.
[6] abbreviates: first unnamed S. aureus column (c4).
Setting [7] is: fourth unnamed S. aureus column (c8).
[8] abbreviates: second unnamed S. aureus column (c6).
Setting [9] is: third unnamed S. aureus column (c7).
Setting [10] is: Acinetobacter baumannii, ATCC19606, read-out: Minimal Inhibitory Concentration (MIC), A. baumannii ATCC 19606.
[11] abbreviates: Escherichia coli, ATCC25922, read-out: Minimal Inhibitory Concentration (MIC), E. coli ATCC 25922.
[12] abbreviates: Escherichia coli, read-out: Minimal Inhibitory Concentration (MIC), E. coli BAS2006, OMP C, OMP F.
[13] abbreviates: Escherichia coli, read-out: Minimal Inhibitory Concentration (MIC), E. coli olC efflux defective.
Setting [14] is: Escherichia coli, read-out: Minimal Inhibitory Concentration (MIC), E. coli permeability mutant BAS1314, IMP4213ZAB::TN10.
The mark [15] stands for this setting: Klebsiella pneumoniae, ATCC43816, read-out: Minimal Inhibitory Concentration (MIC), K. pneumoniae ATCC 43816.

`CC1=C\[C@@H](O)CC(=O)Cc2nc(co2)C(=O)N2CCC[C@@H]2C(=O)O[C@H]([C@H](C)COC(=O)Nc2cc3ccccc3cn2)[C@H](C)/C=C/C(=O)NC\C=C\1` [SA0110224]: the MIC in the assay with E. faecalis is greater than 64 µg/mL; with E. faecium ATCC 35667 it was 4 µg/mL (≈ 5.6 µM); in the assay with E. faecium VRE; vanA, 8 µg/mL (≈ 11.2 µM); with S. aureus (setting [6]), 4 µg/mL (≈ 5.6 µM); in the assay with S. aureus (setting [7]), 4 µg/mL (≈ 5.6 µM); in the assay on S. aureus (setting [8]), 4 µg/mL (≈ 5.6 µM). For the same compound, the MIC with S. aureus (setting [9]) was 8 µg/mL (≈ 11.2 µM); in assay [1], 16 µg/mL (≈ 22.4 µM); in [2] it was greater than 64 µg/mL; with S. pneumoniae, 16 µg/mL (≈ 22.4 µM); in [3], greater than 64 µg/mL; in the assay with P. aeruginosa ATCC 27853, greater than 64 µg/mL. Further, the MIC in [4] is greater than 64 µg/mL; in the assay on H. influenzae ATCC 49247, 2 µg/mL (≈ 2.8 µM); in the assay on Gram-Negative Organisms (setting [10]) it was greater than 64 µg/mL; in the assay on Gram-Negative Organisms (setting [11]), greater than 64 µg/mL; in the assay with Gram-Negative Organisms (setting [12]), 8 µg/mL (≈ 11.2 µM); in the assay with Gram-Negative Organisms (setting [13]) it was 1 µg/mL (≈ 1.4 µM). The MIC in the assay on Gram-Negative Organisms (setting [14]) was 1 µg/mL (≈ 1.4 µM); with Gram-Negative Organisms (Escherichia coli, read-out: Minimal Inhibitory Concentration (MIC), E. coli ΔompC768, KanR insert), greater than 64 µg/mL; in the assay on Gram-Negative Organisms (setting [15]), greater than 64 µg/mL. The “binding to ribosome seen in cryo-EM structure” value in assay [5] is given as “bound to large subunit of the E. coli ribosome”.
Regarding `CC1=C\[C@@H](O)CC(=O)Cc2nc(co2)C(=O)N2CCC[C@@H]2C(=O)O[C@H](C(C)C)[C@H](C)/C=C/C(=O)NC\C=C\1` [virginiamycin M2, Virginiamycin M2, reference compound], the MIC with E. faecalis is greater than 64 µg/mL; with E. faecium ATCC 35667, 4 µg/mL (≈ 7.58 µM); in the assay on E. faecium VRE; vanA, 8 µg/mL (≈ 15.2 µM); in the assay on S. aureus (setting [6]), 16 µg/mL (≈ 30.3 µM); in the assay on S. aureus (setting [7]) it was 8 µg/mL (≈ 15.2 µM); with S. aureus (setting [8]), 16 µg/mL (≈ 30.3 µM). The MIC in the assay on S. aureus (setting [9]) was 32 µg/mL (≈ 60.6 µM); in [1] it was greater than 64 µg/mL; in assay [2], greater than 64 µg/mL; with S. pneumoniae it was 8 µg/mL (≈ 15.2 µM); in assay [3] it was greater than 64 µg/mL; in the assay on P. aeruginosa ATCC 27853, greater than 64 µg/mL. For the same compound, the MIC is greater than 64 µg/mL in [4]; 16 µg/mL (≈ 30.3 µM) in the assay on H. influenzae ATCC 49247; greater than 64 µg/mL with Gram-Negative Organisms (setting [10]); greater than 64 µg/mL with Gram-Negative Organisms (setting [11]); 2 µg/mL (≈ 3.79 µM) in the assay on Gram-Negative Organisms (setting [12]); 2 µg/mL (≈ 3.79 µM) in the assay with Gram-Negative Organisms (setting [13]). Also, the results for the MIC with Gram-Negative Organisms (setting [14]) and in the assay on Gram-Negative Organisms (setting [15]) were 2 µg/mL (≈ 3.79 µM) and greater than 64 µg/mL, respectively.

Values taken from patent US20200325177A1, “METHODS OF MAKING STREPTOGRAMIN COMPOSITIONS AND THE USE THEREOF” (THE REGENTS OF THE UNIVERSITY OF CALIFORNIA, priority 2017, published 2020).
